The results in this text go back to patent US20150133426A1, “SUBSTITUTED PYRROLOPYRIMIDINES” (BAYER PHARMA AKTIENGESELLSCHAFT, priority 2012, published 2015).

Structures are written as SMILES.

The assay deals with T1, human full-length MKNK1 (Homo sapiens, UniProt Q9BUB5, T385D).
T1 construct: purchased Carna Biosciences 02-145; host or cells: insect cells, baculovirus expression system
T1 sequence (Q9BUB5 1-424 isoform Q9BUB5-2 T344D): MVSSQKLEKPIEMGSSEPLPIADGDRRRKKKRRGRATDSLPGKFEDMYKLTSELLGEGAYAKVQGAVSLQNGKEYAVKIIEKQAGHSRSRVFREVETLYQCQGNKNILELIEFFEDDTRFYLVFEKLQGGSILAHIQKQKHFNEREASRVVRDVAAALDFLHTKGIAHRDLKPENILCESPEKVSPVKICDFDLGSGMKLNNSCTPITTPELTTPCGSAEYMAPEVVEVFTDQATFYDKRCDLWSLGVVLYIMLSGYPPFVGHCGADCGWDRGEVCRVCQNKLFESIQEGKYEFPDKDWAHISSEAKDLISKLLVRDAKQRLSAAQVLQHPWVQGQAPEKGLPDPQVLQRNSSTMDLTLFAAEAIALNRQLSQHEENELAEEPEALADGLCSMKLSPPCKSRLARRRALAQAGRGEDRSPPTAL
In words: MKNK1 kinase high ATP assay (TR-FRET). The assay is classed as biochemical. Particulars: high ATP (2 mM), 15 min preincubation with enzyme, GST-MKNK1 (T344D). As to the method:
MKNK1-inhibitory activity at high ATP of compounds of the present invention after their preincubation with MKNK1 was quantified employing the TR-FRET-based MKNK1 high ATP assay as described in the following paragraphs.
A recombinant fusion protein of Glutathione-S-Transferase (GST, N-terminally) and human full-length MKNK1 (amino acids 1-424 and T344D of accession number BAA 19885.1), expressed in insect cells using baculovirus expression system and purified via glutathione sepharose affinity chromatography, was purchased from Carna Biosciences (product no 02-145) and used as enzyme. As substrate for the kinase reaction the biotinylated peptide biotin-Ahx-IKKRKLTRRKSLKG (C-terminus in amide form) was used, which can be purchased e.g. from the company Biosyntan (Berlin-Buch, Germany).
For the assay 50 nL of a 100fold concentrated solution of the test compound in DMSO was pipetted into a black low volume 384well microtiter plate (Greiner Bio-One, Frickenhausen, Germany), 2 μL of a solution of MKNK1 in aqueous assay buffer [50 mM HEPES pH 7.5, 5 mM MgCl2, 1.0 mM dithiothreitol, 0.005% (v/v) Nonidet-P40 (Sigma)] was added and the mixture was incubated for 15 min at 22° C. to allow pre-binding of the test compounds to the enzyme before the start of the kinase reaction. Then the kinase reaction was started by the addition of 3 μL of a solution of adenosine-tri-phosphate (ATP, 3.3 mM=>final conc. in the 5 μL assay volume is 2 mM) and substrate (0.1 μM=>final conc. in the 5 μL assay volume is 0.06 μM) in assay buffer and the resulting mixture was incubated for a reaction time of 30 min at 22° C. The concentration of MKNK1 was adjusted depending of the activity of the enzyme lot and was chosen appropriate to have the assay in the linear range, typical concentrations were in the range of 0.003 μg/mL. The reaction was stopped by the addition of 5 μL of a solution of TR-FRET detection reagents (5 nM streptavidine-XL665 [Cisbio Bioassays, Codolet, France] and 1 nM anti-ribosomal protein […] (pSer236)-antibody from Invitrogen [#44921G] and 1 nM LANCE EU-W1024 labeled ProteinG [Perkin-Elmer, product no. AD0071]) in an aqueous EDTA-solution (100 mM EDTA, 0.1% (w/v) bovine serum albumin in 50 mM HEPES pH 7.5).
The resulting mixture was incubated for 1 h at 22° C. to allow the formation of complex between the phosphorylated biotinylated peptide and the detection reagents. Subsequently the amount of phosphorylated substrate was evaluated by measurement of the resonance energy transfer from the Eu-chelate to the streptavidine-XL. Therefore, the fluorescence emissions at 620 nm and 665 nm after excitation at 350 nm were measured in a TR-FRET reader, e.g. a Rubystar (BMG Labtechnologies, Offenburg, Germany) or a Viewlux (Perkin-Elmer). The ratio of the emissions at 665 nm and at […] was taken as the measure for the amount of phosphorylated substrate. The data were normalised (enzyme reaction without inhibitor=0% inhibition, all other assay components but no enzyme=100% inhibition).
Background: In TR-FRET formats the signal depends on donor and acceptor labels being close together.
Regarding `CSc1cc2c(cc1Nc1ncnc3[nH]c4c(c13)CC(C(=O)NCCCS(C)(=O)=O)CC4)OCCO2` (racemic) [Example 65, (RS)-4-{[7-(Methylsulfanyl)-2,3-dihydro-1,4-benzodioxin-6-yl]amino}-N-[3-(methylsulfonyl)propyl]-6,7,8,9-tetrahydro-5H-pyrimido[4,5-b]indole-6-carboxamide], half-maximal inhibition (IC50) was put at 13.3 µM. With `COc1ccc(Br)cc1Nc1ncnc2[nH]c3c(c12)CCCC3` [Example 128] the figure was 0.313 µM; with `COc1cc2[nH]ncc2cc1Nc1ncnc2[nH]c3c(c12)CC(C(=O)N1CCN(C)CC1)CC3` (racemic) [Example 221, (RS)-{4-[(6-Methoxy-1H-indazol-5-yl)amino]-6,7,8,9-tetrahydro-5H-pyrimido[4,5-b]indol-6-yl}(4-methylpiperazin-1-yl)methanone], 0.004 µM; with `CS(=O)(=O)CCCNC(=O)C1CCc2[nH]c3ncnc(Nc4ccc(C(=O)N5CCCC5)cc4)c3c2C1` (racemic) [Example 38, (RS)—N-[3-(Methylsulfonyl)propyl]-4-{[4-(pyrrolidin-1-ylcarbonyl)phenyl]amino}-6,7,8,9-tetrahydro-5H-pyrimido[4,5-b]indole-6-carboxamide], 10.6 µM.

For the compound `Clc1ccc(Nc2ncnc3[nH]c4c(c23)CCCC4)cc1Cl` [Example 114], it took 1.49 µM to reach half-maximal inhibition (IC50). With `CNC(=O)C1CCc2[nH]c3ncnc(Nc4cc5cn[nH]c5cc4OC)c3c2C1` (racemic) [Example 217, (RS)-4-[(6-Methoxy-1H-indazol-5-yl)amino]-N-methyl-6,7,8,9-tetrahydro-5H-pyrimido[4,5-b]indole-6-carboxamide] the figure was 0.01 µM. For `Nc1ccc2c(c1)CCN2c1ncnc2[nH]c3c(c12)CCCC3` [Example 113] the value was 0.683 µM. For `Cc1nc2cc(Nc3ncnc4[nH]c5c(c34)CC(C(=O)NCCCS(C)(=O)=O)CC5)ccc2s1` (racemic) [Example 50, (RS)-4-[(2-Methyl-1,3-benzothiazol-5-yl)amino]-N-[3-(methylsulfonyl)propyl]-6,7,8,9-tetrahydro-5H-pyrimido[4,5-b]indole-6-carboxamide] the value was 6.41 µM; for `O=C(NC1CC1)C1CCc2[nH]c3ncnc(Nc4ccccc4OC4CCCC4)c3c2C1` (racemic) [Example 191, (RS)-4-{[2-(Cyclopentyloxy)phenyl]amino}-N-cyclopropyl-6,7,8,9-tetrahydro-5H-pyrimido[4,5-b]indole-6-carboxamide], 0.171 µM; for `O=C(O)C1CCc2[nH]c3ncnc(Nc4ccc5[nH]ncc5c4)c3c2C1` (racemic) [Example 6, (RS)-4-(1H-Indazol-5-ylamino)-6,7,8,9-tetrahydro-5H-pyrimido[4,5-b]indole-6-carboxylic acid], 0.089 µM. On to `CCNC(=O)C1CCc2[nH]c3ncnc(N4CCc5ccccc54)c3c2C1` (racemic) [Example 207, (RS)-4-(2,3-Dihydro-1H-indol-1-yl)-N-ethyl-6,7,8,9-tetrahydro-5H-pyrimido[4,5-b]indole-6-carboxamide], for which the midpoint of inhibition, the IC50, lay at 3.14 µM. For `CC(=O)c1ccc(Nc2ncnc3[nH]c4c(c23)CC(C(=O)NCCCS(C)(=O)=O)CC4)cc1` (racemic) [Example 53, (RS)-4-[(4-Acetylphenyl)amino]-N-[3-(methylsulfonyl)propyl]-6,7,8,9-tetrahydro-5H-pyrimido[4,5-b]indole-6-carboxamide] the value was 0.335 µM; for `CC(C)Oc1cc2[nH]ncc2cc1Nc1ncnc2[nH]c3c(c12)CC(C(=O)NCCCS(C)(=O)=O)CC3` (racemic) [Example 230, (RS)—N-[3-(Methylsulfonyl)propyl]-4-{[6-(propan-2-yloxy)-1H-indazol-5-yl]amino}-6,7,8,9-tetrahydro-5H-pyrimido[4,5-b]indole-6-carboxamide], 0.001 µM; for `CS(=O)(=O)CCCNC(=O)C1CCc2[nH]c3ncnc(Nc4ccc(F)c(OC(F)(F)F)c4)c3c2C1` (racemic) [Example 43, (RS)-4-{[4-Fluoro-3-(trifluoromethoxy)phenyl]amino}-N-[3-(methylsulfonyl)propyl]-6,7,8,9-tetrahydro-5H-pyrimido[4,5-b]indole-6-carboxamide], 0.782 µM. For `CCNC(=O)C1CCc2[nH]c3ncnc(Nc4ccc5[nH]ncc5c4)c3c2C1` (racemic) [Example 7, (RS)—N-Ethyl-4-(1H-indazol-5-ylamino)-6,7,8,9-tetrahydro-5H-pyrimido[4,5-b]indole-6-carboxamide] the value was 0.02 µM. For `CC(C)Oc1ccc(Cl)cc1Nc1ncnc2[nH]c3c(c12)CC(C(=O)NCCCS(C)(=O)=O)CC3` (racemic) [Example 150, (RS)-4-{[5-Chloro-2-(propan-2-yloxy)phenyl]amino}-N-[3-(methylsulfonyl)propyl]-6,7,8,9-tetrahydro-5H-pyrimido[4,5-b]indole-6-carboxamide] the value was 0.012 µM; for `CS(=O)(=O)CCCNC(=O)C1CCc2[nH]c3ncnc(Nc4ccc5c(c4)CCS5(=O)=O)c3c2C1` (racemic) [Example 52, (RS)-4-[(1,1-Dioxido-2,3-dihydro-1-benzothiophen-5-yl)amino]-N-[3-(methylsulfonyl)propyl]-6,7,8,9-tetrahydro-5H-pyrimido[4,5-b]indole-6-carboxamide], 0.904 µM; for `CC(C)Oc1cc(F)ccc1Nc1ncnc2[nH]c3c(c12)CC(C(=O)O)CC3` (racemic) [Example 183, (RS)-4-{[4-Fluoro-2-(propan-2-yloxy)phenyl]amino}-6,7,8,9-tetrahydro-5H-pyrimido[4,5-b]indole-6-carboxylic acid], 0.406 µM. Take `O=c1[nH]c2ccc(Nc3ncnc4[nH]c5c(c34)CCCC5)cc2[nH]c1=O` [Example 110]: the IC50 (commonly the concentration at which inhibition is half-maximal) came to 12.2 µM. With `c1ccc(OC2CCOCC2)c(Nc2ncnc3[nH]c4c(c23)CCCC4)c1` [Example 130, N-[2-(tetrahydro-2H-pyran-4-yloxy)phenyl]-6,7,8,9-tetrahydro-5H-pyrimido[4,5-b]indol-4-amine] the figure was 0.089 µM. With `O=C(NC1CC1)C1CCc2[nH]c3ncnc(Nc4ccc5[nH]ncc5c4)c3c2C1` (racemic) [Example 15, (RS)—N—Cyclopropyl-4-(1H-indazol-5-ylamino)-6,7,8,9-tetrahydro-5H-pyrimido[4,5-b]indole-6-carboxamide] the figure was 0.019 µM; with `COc1cc(F)ccc1Nc1ncnc2[nH]c3c(c12)CC(C(=O)NCCCS(C)(=O)=O)CC3` (racemic) [Example 37, (RS)-4-[(4-Fluoro-2-methoxyphenyl)amino]-N-[3-(methylsulfonyl)propyl]-6,7,8,9-tetrahydro-5H-pyrimido[4,5-b]indole-6-carboxamide], 0.145 µM; with `CCOC(=O)CNC(=O)C1CCc2[nH]c3ncnc(Nc4ccc(F)cc4OCCO)c3c2C1` (racemic) [Example 228, (RS)-Ethyl N-[(4-{[4-fluoro-2-(2-hydroxyethoxy)phenyl]amino}-6,7,8,9-tetrahydro-5H-pyrimido[4,5-b]indol-6-yl)carbonyl]glycinate], 0.051 µM. In the case of `CCOC(=O)C1CCc2[nH]c3ncnc(N4CCc5ccccc54)c3c2C1` (racemic) [Example 173, (RS)-Ethyl 4-(2,3-dihydro-1H-indol-1-yl)-6,7,8,9-tetrahydro-5H-pyrimido[4,5-b]indole-6-carboxylate], the IC50 came to 3.6 µM.
